From patent US8822449B2, “Substituted aminoindanes and analogs thereof, and the pharmaceutical use thereof” (Sanofi, priority 2008, dated 2014)

What follows are compounds tested against T1, sodium-proton exchanger of subtype 3 (NHE3) (Homo sapiens, UniProt P48764) (assay: Recovery of intracellular pH (pHi) after acidification in LAP1 cells stably expressing NHE3 (BCECF fluorescence, FLIPR)). Settings: Activity range (inhibitory effect on NHE3), LAP1 cells stably expressing NHE3; pH recovery after acidification; range 1 is % inhibition at 10 μM.
T1 construct: expressed in transfected cells
T1 sequence (P48764 26-834): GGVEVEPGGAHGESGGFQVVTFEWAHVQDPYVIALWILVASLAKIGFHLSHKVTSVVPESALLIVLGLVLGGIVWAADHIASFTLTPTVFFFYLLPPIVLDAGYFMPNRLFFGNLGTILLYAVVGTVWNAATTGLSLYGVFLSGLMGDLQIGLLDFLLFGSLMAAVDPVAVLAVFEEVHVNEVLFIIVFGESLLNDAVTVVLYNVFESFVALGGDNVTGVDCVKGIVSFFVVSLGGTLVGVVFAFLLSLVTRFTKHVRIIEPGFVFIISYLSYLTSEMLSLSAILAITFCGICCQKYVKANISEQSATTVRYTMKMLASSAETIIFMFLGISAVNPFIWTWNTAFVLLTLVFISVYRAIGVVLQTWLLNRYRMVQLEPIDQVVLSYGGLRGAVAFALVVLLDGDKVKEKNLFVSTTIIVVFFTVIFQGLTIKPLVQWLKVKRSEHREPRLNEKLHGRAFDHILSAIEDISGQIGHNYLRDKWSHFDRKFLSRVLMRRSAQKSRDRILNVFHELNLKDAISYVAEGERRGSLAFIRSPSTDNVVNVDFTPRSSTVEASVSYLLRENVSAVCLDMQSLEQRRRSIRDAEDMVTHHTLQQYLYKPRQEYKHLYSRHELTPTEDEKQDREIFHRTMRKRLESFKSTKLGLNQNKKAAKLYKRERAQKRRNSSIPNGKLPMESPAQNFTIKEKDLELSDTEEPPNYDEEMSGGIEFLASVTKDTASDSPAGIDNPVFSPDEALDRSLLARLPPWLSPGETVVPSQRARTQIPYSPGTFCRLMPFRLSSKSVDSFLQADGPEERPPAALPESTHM
Format: cell-based
With `Cc1nncn1-c1ccc(O[C@H]2c3ccccc3C[C@@H]2N2CCCC2)cc1` (racemic) [Example 453, 3-methyl-4-[4-(rac-trans-(1,2)-2-pyrrolidin-1-ylindan-1-yloxy)phenyl]-4H-[1,2,4]triazole] the IC50 was under 1000 nM.

Same assay, conditions: LAP1 cells stably expressing NHE3; pH recovery after acidification; range 1 is % inhibition at 10 μM; read-out: Activity range (inhibitory effect on NHE3)
Work on `Cn1ccn(-c2cccc(O[C@H]3c4cc(Cl)cc(Cl)c4C[C@@H]3N3CCNCC3)c2)c1=O` (racemic) [Example 257, 1-[3-(rac-trans-(1,2)-4,6-dichloro-2-piperazin-1-ylindan-1-yloxy)phenyl]-3-methyl-1,3-dihydroimidazol-2-one] yielded an IC50 of under 1000 nM. For `COc1cc(Cl)cc(O[C@@H]2c3ccccc3C[C@H]2N2CCC[C@H](N)C2)c1` (racemic) [Example 164, (S)-1-[rac-trans-(1,2)-1-(3-chloro-5-methoxyphenoxy)indan-2-yl]piperidin-3-ylamine], the IC50 was 1000 to 10000 nM. `Cc1ccc(O[C@H]2c3ccccc3CC[C@@H]2N2CCC[C@H](N)C2)c(Cl)c1` (racemic) [Example 152, (S)-1-[rac-trans-(1,2)-1-(2-chloro-4-methylphenoxy)-1,2,3,4-tetrahydronaphthalen-2-yl]piperidin-3-ylamine] gave an inhibition at 10 µM of 20 to 50%. With `N#Cc1cc(Cl)ccc1O[C@@H]1c2ccccc2C[C@H]1N1CCC(CN)CC1` (racemic) [Example 376, 2-[rac-trans-(1,2)-2-(4-aminomethylpiperidin-1-yl)indan-1-yloxy]-5-chlorobenzonitrile] the IC50 was 1000 to 10000 nM. For `CN1CCN(c2ccc(O[C@H]3c4cc(Cl)cc(Cl)c4C[C@@H]3N3CC[C@@H](O)C3)c(F)c2)C1=O` [Example 330, 1-{4-[trans-(1S,2S)-4,6-dichloro-2-((R)-3-hydroxypyrrolidin-1-yl)indan-1-yloxy]-3-fluorophenyl}-3-methylimidazolidin-2-one], the IC50 was under 1000 nM. `NCC1CCN([C@@H]2Cc3ccccc3[C@H]2Oc2ccc3[nH]cc(CC(N)=O)c3c2)C1` (mixture of isomers) [Example 386, 2-{5-[rac-trans-(1,2)-2-(3-aminomethylpyrrolidin-1-yl)indan-1-yloxy]-1H-indol-3-yl}acetamide] showed an IC50 of 1000 to 10000 nM. `N[C@@H]1CCCN([C@H]2CCc3ccccc3[C@@H]2Oc2ccc(F)cc2)C1` (racemic) [Example 70, (R)-1-[rac-trans-(1,2)-1-(4-fluorophenoxy)-1,2,3,4-tetrahydronaphthalen-2-yl]piperidin-3-ylamine] showed an inhibition at 10 µM of 20 to 50%. For `c1cc(O[C@@H]2c3ccccc3C[C@H]2N2C[C@H]3CNC[C@H]3C2)cc(N2CCNCC2)c1` (racemic) [Example 13, 2-[rac-trans-(1,2)-1-(3-piperazin-1-ylphenoxy)indan-2-yl]octahydropyrrolo[3,4-c]pyrrole], the IC50 was 1000 to 10000 nM. Compound `CS(=O)(=O)c1ccc(O[C@H]2c3cc(F)cc(Cl)c3C[C@@H]2N2CCNCC2)cc1` (racemic) [Example 283, 1-[rac-trans-(1,2)-4-chloro-6-fluoro-1-(4-methanesulfonylphenoxy)indan-2-yl]piperazine] has an IC50 of under 1000 nM. `N[C@@H]1CCCN([C@@H]2Cc3ccccc3[C@H]2Oc2ccc(S(N)(=O)=O)c(Cl)c2Cl)C1` (racemic) [Example 518, 4-[rac-trans-(1,2)-2-((R)-3-aminopiperidin-1-yl)indan-1-yloxy]-2,3-dichlorobenzenesulfonamide] was tested, and the IC50 was under 1000 nM. `CC(C)c1nc(C(C)(C)C)cn1-c1ccc(O[C@H]2c3cc(Cl)cc(F)c3C[C@@H]2N2CC[C@@H](O)C2)cc1` [Example 724, (R)-1-{trans-(1S,2S)-1-[4-(4-tert-Butyl-2-isopropyl-imidazol-1-yl)-phenoxy]-6-chloro-4-fluoro-indan-2-yl}-pyrrolidin-3-ol] showed an inhibition at 10 µM of 20 to 50%. Compound `Cc1cc(C)c2cccnc2c1O[C@H]1c2ccccc2CC[C@@H]1N1CCC[C@@H](N)C1` (racemic) [Example 78, (R)-1-[rac-trans-(1,2)-1-(5,7-dimethylquinolin-8-yloxy)-1,2,3,4-tetrahydronaphthalen-2-yl]piperidin-3-ylamine] has an inhibition at 10 µM of 20 to 50%. In the case of `CC(C)[C@H]1COC(=O)N1c1ccc(Cl)c(O[C@H]2c3cc(Cl)cc(F)c3C[C@@H]2N2CC[C@@H](O)C2)c1` [Example 211, (S)-3-{4-chloro-3-[(1S,2S)-6-chloro-4-fluoro-2((R)-3-hydroxypyrrolidin-1-yl)indan-1-yloxy]phenyl}-4-isopropyloxazolidin-2-one], the inhibition at 10 µM is reported as 20 to 50%. `Cc1noc(C)c1-c1ccc(O[C@H]2c3cc(Cl)cc(Cl)c3C[C@@H]2N2CC[C@@H](O)C2)cc1` [Example 135, (R)-1-{trans-(1S,2S)-4,6-dichloro-1-[4-(3,5-dimethylisoxazol-4-yl)phenoxy]indan-2-yl}pyrrolidin-3-ol] gave an inhibition at 10 µM of 20 to 50%. `COc1cccc(F)c1O[C@@H]1c2cc(Cl)cc(Cl)c2C[C@H]1N1CCC[C@@H](N)C1` [Example 94, (R)-1-[trans-(1R,2R)-4,6-dichloro-1-(2-fluoro-6-methoxyphenoxy)indan-2-yl]piperidin-3-ylamine] gave an inhibition at 10 µM of 20 to 50%. For `N[C@H]1CCCN([C@H]2CCc3ccccc3[C@@H]2Oc2ccc(Br)cc2-c2cc[nH]n2)C1` (racemic) [Example 203, (S)-1-{rac-trans-(1,2)-1-[4-bromo-2-(1H-pyrazol-3-yl)phenoxy]-1,2,3,4-tetrahydronaphthalen-2-yl}piperidin-3-ylamine], the inhibition at 10 µM was 20 to 50%. `CS(=O)(=O)c1ccc(O[C@H]2c3cc(Cl)cc(F)c3C[C@@H]2NC2CCCC2)cc1` [Example 751, [trans-(1S,2S)-6-Chloro-4-fluoro-1-(4-methanesulfonyl-phenoxy)-indan-2-yl]-cyclopentyl-amine] showed an IC50 of 1000 to 10000 nM. Compound `O=C1CCC(=O)N1c1cccc(O[C@H]2c3cc(Cl)cc(Cl)c3C[C@@H]2N2CC[C@@H](O)C2)c1` [Example 316, 1-{3-[(1S,2S)-4,6-dichloro-2-((R)-3-hydroxypyrrolidin-1-yl)indan-1-yloxy]phenyl}pyrrolidine-2,5-dione] has an IC50 of 1000 to 10000 nM. Work on `N[C@H]1CCCN([C@H]2CCc3ccccc3[C@@H]2Oc2ccc(F)cc2-c2cc[nH]n2)C1` (racemic) [Example 205, (S)-1-{rac-trans-(1,2)-1-[4-fluoro-2-(1H-pyrazol-3-yl)phenoxy]-1,2,3,4-tetrahydronaphthalen-2-yl}piperidin-3-ylamine] yielded an inhibition at 10 µM of 20 to 50%. With `NS(=O)(=O)c1ccc(OC2c3ccccc3CC2N2CCCC2)c(Cl)c1Cl` (racemic) [Example 357, 2,3-dichloro-4-(rac-trans-(1,2)-2-pyrrolidin-1-ylindan-1-yloxy)benzenesulfonamide] the IC50 was under 1000 nM. `Cc1nnc(C)n1-c1ccc(C(=O)O[C@H]2c3cc(Cl)cc(Cl)c3C[C@@H]2N2CC[C@@H](O)C2)c(Cl)c1` [Example 710, 2-Chloro-4-(3,5-dimethyl-[1,2,4]triazol-4-yl)-benzoic acid trans-(1S,2S)-4,6-dichloro-2-((R)-3-hydroxy-pyrrolidin-1-yl)-indan-1-yl ester] gave an IC50 of 1000 to 10000 nM. With `COC(=O)c1ccc(O[C@H]2c3cc(Cl)ccc3C[C@@H]2N2CC[C@@H](O)C2)c(Cl)c1` [Example 446, 3-chloro-4-[trans-(1S,2S)-6-chloro-2-((R)-3-hydroxypyrrolidin-1-yl)indan-1-yloxy]benzoic acid methyl ester] the inhibition at 10 µM was 20 to 50%. `CS(=O)(=O)c1ccc(O[C@H]2c3cc(Cl)cc(Cl)c3C[C@@H]2N2CCN3CCC[C@H]3C2)cc1` [Example 208, (S)-2-[(S)-4-(S)-chloro-6-chloro-1-(4-methanesulfonylphenoxy)indan-2-yl]octahydropyrrolo[1,2-a]pyrazine] was tested, and the inhibition at 10 µM was 20 to 50%.
